{
  "source": "patent US20040121307A1",
  "about": "“Early detection of cellular differentiation using optophoresis” (Genoptix, Inc, priority 2002, published 2004)",
  "key": {"[1]": {"system": "U937 cells", "assay": "ApoAlert Annexin V assay (FACS)", "assay_type": "cell-based", "conditions": "4 μg/ml camptothecin", "method": "Still other assays provide earlier indications of the onset of apoptosis. For example, commercially available assays, such as the ApoAlert Annexin V assay (available from CLONETECH) are able to detect changes in the plasma membrane by using a FITC conjugate of annexin V. The ApoAlert Annexin V assay is based on the observation that within about 6-10 hours after the onset of apoptosis, most cell types translocate phosphatidylserine (PS) from the inner face of the plasma membrane to the exterior of the cell surface. Once the PS is exposed on the exterior of the cell surface, the presence of PS can be detected using a FITC conjugate of annexin V. Fluorescence microscopy and flow cytometry can then be used to detect the binding of the FITC conjugate to the […]. While this assay does provide for relatively early detection of apoptotic events, the assay requires labeled annexin V markers as well as subsequent analysis by fluorescent microscopy or flow cytometry.\nAnother experiment using U937 cells treated with 4 μg/ml camptothecin was also carried out. In this experiment, however, the cells were subject to analysis using an annexin V assay. The assay was performed using the ApoAlert Annexin V Apoptosis Kit (available from Clonetech, catalog no. K2025-1). […] Significant annexin V binding is seen later in the 3 and 4 hour time points. […]"}, "[2]": {"system": "activated caspases in U937 cells", "assay": "Homogeneous Caspases Assay, Fluorimetric", "assay_type": "cell-based", "conditions": "4 μg/ml camptothecin, 300 cells/well", "text": "Another assay that provides for even earlier detection of apoptotic events are assays that detect caspase activation. For example, the Homogeneous Caspases Assay, Fluorimetric (available from Roche, catalog no. 3005372), is able to detect caspase activation. […] The kit uses the substrate DEVD-Rhodamine 110 which is cleaved by activated caspases. When DEVD-Rhodamine 110 is cleaved, the released Rhodamine-110 molecule fluoresces upon excitation. By comparing the fluorescence from an apoptotic sample and an uninduced control, the increase in caspase activity can be quantified. While caspase assays do have the ability to detect relatively early apoptotic events, the assays require fluorometric enzyme substrates. Yet another experiment using U937 cells treated with 4 μg/ml camptothecin was carried out. In this experiment, the cells were subject to analysis using a caspase assay (Homogeneous Caspases Assay, Fluorimetric-available from Roche, catalog no. 3005372). The caspase assay is a fluorometric assay carried out in 96-well plates. […] Upon cleavage of the substrate by activated caspases, fluorescence of the released Rhodamine 110 is measured. […] FIG. 102 illustrates a graph of the relative fluorescence units (RFU) as a function of incubation times (hours) for the control (blank) as well as the camptothecin-treated cells."}, "[3]": {"system": "CEM/C2 cell line", "conditions": "cell lines obtained from ATCC; cited from earlier work"}, "[4]": {"system": "U937 cells", "assay": "Experiment 4: effect of camptothecin, escape velocity", "assay_type": "cell-based", "conditions": "for escape velocity, Average: 0.04 μg/ml camptothecin", "method": "The objective of this experiment is to test the effects of camptothecin on the escape velocities of U937 cells. Camptothecin inhibits DNA topoisomerase I and induces apoptosis. A control and three concentrations of camptothecin were tested: […]. After adding the camptothecin, the flasks are incubated at 37° C. 5% CO2.\nAt the timepoints of 4 hours and 6 hours, 200 μl of cells are spun for 5 minutes at 5000 rpm. The cells are then resuspended in […] PBS/1% BSA and […] trypan blue.\nOptophoretic techniques have been investigated for their potential to detect the early onset of apoptosis in mammalian cells. U.S. patent application Ser. No. 10,240,611, for example, discloses multiple experiments in which U937 cells were treated with camptothecin and subsequently monitored Optophoretically using measured escape velocities. In one experiment, the escape velocity of the camptothecin-treated cells were measured at 4 and 6 hours after treatment. Noticeable changes in escape velocity were seen as early as 4 hours after treatment (see, e.g., FIG. 34). In that experiment, U937 cells were treated with 4 μg/ml of camptothecin and resuspended in PBS/1% BSA. Escape velocity measurements were taken after 4 and 6 hours. Table 18, reproduced below, includes the results of the escape velocity measurements for the test cells as well as the controls."}, "[5]": {"system": "K562 Cells", "assay": "Experiment 7: time and concentration dependence of paciltaxel, escape velocity", "assay_type": "cell-based", "set-up": "escape velocity, Ave.: unit not given here", "method": "In this experiment, the effect of time and concentration of paciltaxel was tested using K562 cells. Paciltaxel is a chemotherapeutic agent whose mechanism of action is the […] and the subsequent disruption of the cytoskeleton in cells. The timepoints tested were 4 hours, 23 hours, 30 hours and 47 hours. The concentrations of paciltaxel used in the experiment were 10 nM, 1 nM, 100 pM, and 10 pM. At each timepoint, 300 μl of cells were removed from each sample and centrifuged for 5 minutes at 5,000 rpm. The cells were then resuspended in PBS/1% BSA and trypan blue."}, "[6]": {"system": "K562 Cells", "assay": "Escape velocities of different cell types (1064 system, CYTOP coated coverslips)", "assay_type": "cell-based", "conditions": "26 Hr. Taxol Treatment", "text": "Certain of the data reported herein were generated with the following setup. Optical gradient fields were generated using a Michelson interferometer and either a 150 mW, 812 nm laser (812 system) or a 2.5 W, 1064 nm laser (1064 system). The 812 system used a 100× (1.25 NA) oil immersion lens to focus the fringe pattern and to visualize the sample. The 1064 system used a 20× objective to focus the fringes and a 60× objective to visualize the sample. In general the sample cell was a coated microscope slide and/or coverslip that was sealed with Vaseline. Coverslip spacers controlled the height of the cell at approximately 150 micrometers.\nEscape velocities were measured using a gradient field generated by the 1064 system on CYTOP coated coverslips."}},
  "data": [
    {"molecule": "CC[C@@]1(O)C(=O)OCc2c1cc1n(c2=O)Cc2cc3ccccc3nc2-1", "note": "[camptothecin]", "values": [
      {"measurement": "time at which the annexin V assay begins to detect the onset of apoptosis", "setting": "[1]", "result": 2, "unit": "h"},
      {"measurement": "time after administration at which caspase activity is detected", "setting": "[2]", "result": "> 4", "unit": "h"},
      {"measurement": "fold less sensitive than parental CCRF-CEM", "setting": "[3]", "result": 970, "unit": "fold"},
      {"measurement": "shift in escape velocity over time", "setting": "[4]; 40 ng/ml camptothecin, 4 and 6 hours (FIG. 34)", "result": "shift to lower escape velocities over time"},
      {"measurement": "escape velocity, Average", "setting": "[4]; 4 hours", "result": 10.16, "unit": "μm/sec"},
      {"measurement": "escape velocity, Average", "setting": "[4]; 6 hours", "result": 9.52, "unit": "μm/sec"}
    ]},
    {"molecule": "CC(=O)O[C@H]1C(=O)[C@@]2(C)[C@H]([C@H](OC(=O)c3ccccc3)[C@]3(O)C[C@H](OC(=O)[C@H](O)[C@@H](NC(=O)c4ccccc4)c4ccccc4)C(C)=C1C3(C)C)[C@]1(OC(C)=O)CO[C@@H]1C[C@@H]2O", "note": "[paciltaxel]", "values": [
      {"measurement": "escape velocity, Ave.", "setting": "[5]; 10 pM paciltaxel, 4 Hours", "result": 15.7},
      {"measurement": "escape velocity, Ave.", "setting": "[5]; 10 pM paciltaxel, 23 Hours", "result": 15.7},
      {"measurement": "escape velocity, Ave.", "setting": "[5]; 10 pM paciltaxel, 30 Hours", "result": 16.0},
      {"measurement": "escape velocity, Ave.", "setting": "[5]; 10 pM paciltaxel, 47 Hours", "result": 16.2},
      {"measurement": "optophoretic effect on cells", "setting": "[5]; 10 pM to 10 nM, 4 to 47 hours", "result": "both a time and dose dependent optophoretic effect"},
      {"measurement": "escape velocity, Ave.", "setting": "[5]; 100 pM paciltaxel, 4 Hours", "result": 15.9},
      {"measurement": "escape velocity, Ave.", "setting": "[5]; 100 pM paciltaxel, 23 Hours", "result": 17.1},
      {"measurement": "escape velocity, Ave.", "setting": "[5]; 100 pM paciltaxel, 30 Hours", "result": 17.6},
      {"measurement": "escape velocity, Ave.", "setting": "[5]; 100 pM paciltaxel, 47 Hours", "result": 17.0},
      {"measurement": "escape velocity, Ave.", "setting": "[5]; 1 nM paciltaxel, 4 Hours", "result": 15.6},
      {"measurement": "escape velocity, Ave.", "setting": "[5]; 1 nM paciltaxel, 23 Hours", "result": 16.9},
      {"measurement": "escape velocity, Ave.", "setting": "[5]; 1 nM paciltaxel, 30 Hours", "result": 16.9},
      {"measurement": "escape velocity, Ave.", "setting": "[5]; 1 nM paciltaxel, 47 Hours", "result": 16.7},
      {"measurement": "escape velocity, Ave.", "setting": "[5]; 10 nM paciltaxel, 4 Hours", "result": 15.3},
      {"measurement": "escape velocity, Ave.", "setting": "[5]; 10 nM paciltaxel, 23 Hours", "result": 16.9},
      {"measurement": "escape velocity, Ave.", "setting": "[5]; 10 nM paciltaxel, 30 Hours", "result": 17.4},
      {"measurement": "escape velocity, Ave.", "setting": "[5]; 10 nM paciltaxel, 47 Hours", "result": 17.1},
      {"measurement": "Escape Velocity", "setting": "[6]", "result": "8.2 +/− 0.4 um/sec."}
    ]}
  ]
}
